Assay results published in US11629171B2, “Beta-hairpin peptidomimetics” (POLYPHOR AG, priority 2017, dated 2023).
≈ marks a conversion by molar mass, not a printed value. Where a SMILES comes first, the peptide text is derived from it. Bridges are numbered along the chain shown (N, C = ends). Roman numbers before positions name the chains, in order. [ ]: non-standard residue; d: D form. The star is where a group is joined. Thr(ol) = C[C@@H](O)[C@H](N)CO; Tle = CC(C)(C)[C@H](N)C(=O)O; Hiv = CC(C)[C@H](O)C(=O)O; dDab = NCC[C@@H](N)C(=O)O; hSer = N[C@@H](CCO)C(=O)O; NHCH(CH2OH)2 = OCC(CO)N*; Orn = NCCC[C@H](N)C(=O)O; Dab = NCC[C@H](N)C(=O)O; Dap = NC[C@H](N)C(=O)O

How the values were obtained:
Type in all cases: cell-based
[1] = tested on: human red blood cells (hRBC); assay: Hemolysis; settings: red cells of human, 1 h, 200
Method in brief: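 Percent hemolysis relative to 2% Triton X-100 (100%) and PBS/10% water (0%), from blank-corrected OD540 of diluted supernatants. Peptides tested at 200 μg/mL against 20% (v/v) washed human erythrocytes, 1 h, 37° C, shaking at 300 rpm.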

[2] = tested on: Acinetobacter baumannii DSM 30008; settings: DSM 30008
Method in brief: (§1)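 MIC in μg/mL, read as absence of visible growth after 18-20 h incubation at 35° C, by standard CLSI microdilution. Peptides tested in two-fold serial dilution in cation-adjusted MH-II broth containing 0.002% (final) Polysorbate 80, against roughly 10^6 CFU/mL inocula.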

[3] = tested on: Klebsiella pneumoniae 968733; settings: 968733
Method in brief: as §1

[4] = tested on: Acinetobacter baumannii 872842; settings: 872842
Method in brief: as §1

[5] = tested on: Escherichia coli ATCC 25922; settings: ATCC 25922
Method in brief: as §1

[6] = tested on: Enterobacter cloacae 848840; settings: 848840
Method in brief: as §1

[7] = tested on: Pseudomonas aeruginosa ATCC 27853; settings: ATCC 27853
Method in brief: as §1

[8] = tested on: Klebsiella pneumoniae SSI #3010; settings: SSI #3010
Method in brief: as §1

[9] = tested on: Escherichia coli 926415; settings: 926415
Method in brief: as §1

SMILES | MIC [2] | MIC [3] | MIC [4] | MIC [5] | MIC [6] | MIC [7] | MIC [8] | MIC [9] | Hemolysis at 200 μg/mL [1]
CC(C)C[C@@H]1NC(=O)[C@@H](CC(C)C)NC(=O)[C@H](CCN)NC(=O)[C@@H](NC(=O)[C@H](CCN)NC(=O)[C@@H](NC(=O)[C@H](CCN)NC(=O)CC[C@@H]2NC(=O)[C@H](CO)NC(=O)[C@H](Cc3ccc(O)cc3)NC(=O)[C@@H](NC(=O)[C@@H](O)C(C)C)CSSC[C@@H](C(=O)N[C@H](CO)[C@@H](C)O)NC(=O)[C@H](C(C)(C)C)NC(=O)[C@H](CO)NC(=O)[C@H](Cc3c[nH]c4ccccc34)NC(=O)[C@H](CCO)NC(=O)[C@@H](CCN)NC2=O)[C@@H](C)O)CCNC(=O)[C@H]([C@@H](C)O)NC(=O)[C@H](CCN)NC(=O)[C@H](CCN)NC1=O [Ex. 88] (I: H-[Hiv]CYSE[dDab][hSer]WS[Tle]C[Thr(ol)] / II: [Dab]T[Dab][Dab][Dab][dL]L[Dab][Dab]T; disulfide I:2-I:11; amide I:5-II:N; lactam II:4-II:C) | 0.03125 µg/mL (≈ 0.0131 µM) | 0.125 µg/mL (≈ 0.0523 µM) | 0.125 µg/mL (≈ 0.0523 µM) | 0.0625 µg/mL (≈ 0.0262 µM) | 0.125 µg/mL (≈ 0.0523 µM) | 0.125 µg/mL (≈ 0.0523 µM) | 0.125 µg/mL (≈ 0.0523 µM) | 0.125 µg/mL (≈ 0.0523 µM) | <1%
CC(C)C[C@@H]1NC(=O)[C@@H](CC(C)C)NC(=O)[C@H](CCN)NC(=O)[C@@H](NC(=O)[C@H](CCN)NC(=O)[C@H](CO)NC(=O)[C@H](CCN)NC(=O)CC[C@@H]2NC(=O)[C@H](CCN)NC(=O)[C@H](Cc3ccc(O)cc3)NC(=O)[C@@H](NC(=O)[C@@H](O)C(C)C)CSSC[C@@H](C(=O)N[C@H](CO)[C@@H](C)O)NC(=O)[C@H](C(C)(C)C)NC(=O)[C@H](CO)NC(=O)[C@H](Cc3c[nH]c4ccccc34)NC(=O)[C@H](CCO)NC(=O)[C@@H](CCN)NC2=O)CCNC(=O)[C@H]([C@@H](C)O)NC(=O)[C@H](CCN)NC(=O)[C@H](CCN)NC1=O [Ex. 60] (I: H-[Hiv]CY[Dab]E[dDab][hSer]WS[Tle]C[Thr(ol)] / II: [Dab]S[Dab][Dab][Dab][dL]L[Dab][Dab]T; disulfide I:2-I:11; amide I:5-II:N; lactam II:4-II:C) | 0.0625 µg/mL (≈ 0.0262 µM) | 0.125 µg/mL (≈ 0.0524 µM) | 0.125 µg/mL (≈ 0.0524 µM) | 0.0625 µg/mL (≈ 0.0262 µM) | 4 µg/mL (≈ 1.68 µM) | 0.125 µg/mL (≈ 0.0524 µM) | 0.125 µg/mL (≈ 0.0524 µM) | 0.125 µg/mL (≈ 0.0524 µM) | <1%
CC(C)C[C@@H]1NC(=O)[C@@H](CC(C)C)NC(=O)[C@H](CCN)NC(=O)[C@@H](NC(=O)[C@H](CCN)NC(=O)[C@@H](NC(=O)[C@H](CCN)NC(=O)CC[C@@H]2NC(=O)[C@@H](NC(=O)[C@H](Cc3ccc(O)cc3)NC(=O)[C@@H](NC(=O)[C@@H](N)C(C)C)[C@@H](C)O)CSSC[C@@H](C(=O)N[C@H](C(=O)N[C@@H](C)C(=O)N[C@@H](CO)C(N)=O)C(C)(C)C)NC(=O)[C@H](Cc3c[nH]c4ccccc34)NC(=O)[C@H]([C@@H](C)O)NC(=O)[C@@H](CCN)NC2=O)[C@@H](C)O)CCNC(=O)[C@H]([C@@H](C)O)NC(=O)[C@H](CCN)NC(=O)[C@H](CCN)NC1=O [Ex. 182] (I: H-VTYCE[dDab]TWC[Tle]AS-NH2 / II: [Dab]T[Dab][Dab][Dab][dL]L[Dab][Dab]T; disulfide I:4-I:9; amide I:5-II:N; lactam II:4-II:C) | 0.0625 µg/mL (≈ 0.0262 µM) | 1 µg/mL (≈ 0.419 µM) | 0.125 µg/mL (≈ 0.0524 µM) | 0.03125 µg/mL (≈ 0.0131 µM) | 0.125 µg/mL (≈ 0.0524 µM) | 0.125 µg/mL (≈ 0.0524 µM) | 0.125 µg/mL (≈ 0.0524 µM) | 0.5 µg/mL (≈ 0.21 µM) | <1%
CC(C)C[C@@H]1NC(=O)[C@@H](CC(C)C)NC(=O)[C@H](CCN)NC(=O)[C@@H](NC(=O)[C@H](CCN)NC(=O)[C@@H](NC(=O)[C@H](CCN)NC(=O)CC[C@@H]2NC(=O)[C@H](CCN)NC(=O)[C@H](Cc3ccc(O)cc3)NC(=O)[C@@H](NC(=O)[C@@H](O)C(C)C)CSSC[C@@H](C(=O)N[C@H](CO)[C@@H](C)O)NC(=O)[C@H](C(C)(C)C)NC(=O)[C@H](CCO)NC(=O)[C@H](Cc3c[nH]c4ccccc34)NC(=O)[C@H]([C@@H](C)O)NC(=O)[C@@H](CCN)NC2=O)[C@@H](C)O)CCNC(=O)[C@H]([C@@H](C)O)NC(=O)[C@H](CCN)NC(=O)[C@H](CCN)NC1=O [Ex. 82] (I: H-[Hiv]CY[Dab]E[dDab]TW[hSer][Tle]C[Thr(ol)] / II: [Dab]T[Dab][Dab][Dab][dL]L[Dab][Dab]T; disulfide I:2-I:11; amide I:5-II:N; lactam II:4-II:C) | 0.125 µg/mL (≈ 0.0518 µM) | 0.25 µg/mL (≈ 0.104 µM) | 0.25 µg/mL (≈ 0.104 µM) | 0.0625 µg/mL (≈ 0.0259 µM) | 0.25 µg/mL (≈ 0.104 µM) | 0.25 µg/mL (≈ 0.104 µM) | 0.0625 µg/mL (≈ 0.0259 µM) | 0.5 µg/mL (≈ 0.207 µM) | <1%

Further lines, with some results ahead:

MIC [2] | MIC [3] | MIC [4] | MIC [5] | MIC [6] | MIC [7] | MIC [8] | MIC [9] | SMILES | Hemolysis at 200 μg/mL [1]
0.03125 µg/mL (≈ 0.0127 µM) | 0.125 µg/mL (≈ 0.0506 µM) | 0.03125 µg/mL (≈ 0.0127 µM) | 0.03125 µg/mL (≈ 0.0127 µM) | 0.0625 µg/mL (≈ 0.0253 µM) | 0.125 µg/mL (≈ 0.0506 µM) | 0.0625 µg/mL (≈ 0.0253 µM) | 0.0625 µg/mL (≈ 0.0253 µM) | CC(=O)N[C@H](C(=O)N[C@H]1CSSC[C@@H](C(=O)N[C@H](C(N)=O)[C@@H](C)O)NC(=O)[C@H](C(C)(C)C)NC(=O)[C@H](CCC(=O)O)NC(=O)[C@H](Cc2c[nH]c3ccccc23)NC(=O)[C@H](CO)NC(=O)[C@@H](CCN)NC(=O)[C@H](CCC(=O)N[C@@H](CCN)C(=O)N[C@H](C(=O)N[C@@H](CN)C(=O)N[C@H]2CCNC(=O)[C@H]([C@@H](C)O)NC(=O)[C@H](CCN)NC(=O)[C@H](CCN)NC(=O)[C@H](CC(C)C)NC(=O)[C@@H](CC(C)C)NC(=O)[C@H](CCN)NC2=O)[C@@H](C)O)NC(=O)[C@H](CCN)NC(=O)[C@H](Cc2ccc(O)cc2)NC1=O)C(C)C [Ex. 135] (I: Ac-VCY[Dab]E[dDab]SWE[Tle]CT-NH2 / II: [Dab]T[Dap][Dab][Dab][dL]L[Dab][Dab]T; disulfide I:2-I:11; amide I:5-II:N; lactam II:4-II:C) | <1%
0.0625 µg/mL (≈ 0.0262 µM) | 0.125 µg/mL (≈ 0.0524 µM) | 0.125 µg/mL (≈ 0.0524 µM) | 0.03125 µg/mL (≈ 0.0131 µM) | 4 µg/mL (≈ 1.68 µM) | 0.125 µg/mL (≈ 0.0524 µM) | 0.125 µg/mL (≈ 0.0524 µM) | 0.125 µg/mL (≈ 0.0524 µM) | CC(C)C[C@@H]1NC(=O)[C@@H](CC(C)C)NC(=O)[C@H](CCN)NC(=O)[C@@H](NC(=O)[C@H](CCN)NC(=O)[C@@H](NC(=O)[C@H](CCN)NC(=O)CC[C@@H]2NC(=O)[C@H](CCN)NC(=O)[C@H](Cc3ccc(O)cc3)NC(=O)[C@@H](NC(=O)[C@@H](O)C(C)C)CSSC[C@@H](C(=O)NC(CO)CO)NC(=O)[C@H](C(C)(C)C)NC(=O)[C@H](CO)NC(=O)[C@H](Cc3c[nH]c4ccccc34)NC(=O)[C@H](CCO)NC(=O)[C@@H](CCN)NC2=O)[C@@H](C)O)CCNC(=O)[C@H]([C@@H](C)O)NC(=O)[C@H](CCN)NC(=O)[C@H](CCN)NC1=O [Ex. 95] (I: H-[Hiv]CY[Dab]E[dDab][hSer]WS[Tle]C-{NHCH(CH2OH)2} / II: [Dab]T[Dab][Dab][Dab][dL]L[Dab][Dab]T; disulfide I:2-I:11; amide I:5-II:N; lactam II:4-II:C) | <1%
0.0625 µg/mL (≈ 0.0268 µM) | 0.5 µg/mL (≈ 0.214 µM) | 0.125 µg/mL (≈ 0.0535 µM) | 0.0625 µg/mL (≈ 0.0268 µM) | 0.25 µg/mL (≈ 0.107 µM) | 0.25 µg/mL (≈ 0.107 µM) | 0.125 µg/mL (≈ 0.0535 µM) | 0.5 µg/mL (≈ 0.214 µM) | CC(=O)N[C@H](C(=O)N[C@H]1CCCNC(=O)[C@@H]([C@H](C)O)NC(=O)[C@H](C(C)(C)C)NC(=O)[C@H](CO)NC(=O)[C@H](Cc2c[nH]c3ccccc23)NC(=O)[C@H](CCO)NC(=O)[C@@H](CCN)NC(=O)[C@H](CCC(=O)N[C@@H](CCN)C(=O)N[C@H](C(=O)N[C@@H](CN)C(=O)N[C@H]2CCNC(=O)[C@H]([C@@H](C)O)NC(=O)[C@H](CCN)NC(=O)[C@H](CCN)NC(=O)[C@H](CC(C)C)NC(=O)[C@@H](CC(C)C)NC(=O)[C@H](CCN)NC2=O)[C@@H](C)O)NC(=O)[C@H]([C@@H](C)O)NC(=O)[C@H](Cc2ccc(O)cc2)NC1=O)C(C)C [Ex. 17] (I: Ac-V[Orn]YTE[dDab][hSer]WS[Tle][dT] / II: [Dab]T[Dap][Dab][Dab][dL]L[Dab][Dab]T; lactam I:2-I:C, II:4-II:C; amide I:5-II:N) | <1%
